The values below come from patent publication US4413007A, “Pesticidal symmetrical N-substituted bis-carbamoyloximino disulfide compounds” (priority 1978, dated 1983).

Holding throughout (assay type): in vivo
Experiment [1] has as its system bean aphid (Aphis fabae Scop.). As to the kind of experiment: Bean Aphid Foliage Spray Test. Particulars: 500 ppm, 24 hour holding period. The arrangement: key: A: excellent control; B: partial control; C: no control. As to the method:
(§1) Suspensions of the test compounds were prepared by dissolving one gram of compound in 50 milliliters of acetone in which had been dissolved 0.1 gram (10 percent of the weight of compound) of an alkylphenoxy polyethoxyethanol surfactant, as an emulsifying or dispersing agent. The resulting solution was mixed into 150 milliliters of water to give roughly 200 milliliters of a suspension containing the compound in finely divided form. The thus-prepared stock suspension contained 0.5 percent by weight of compound. The test concentrations in parts per million by weight employed in the tests described hereinbelow were obtained by appropriate dilutions of the stock suspension with water. The test procedures were as follows:
Adults and nymphal stages of the bean aphid (Aphis fabae Scop.) reared on potted dwarf nasturtium plants at 65°-70° F. and 50-70 percent relative humidity, constituted the test insects. For testing purposes, the number of aphids per pot was standardized to 100-150 by trimming plants containing excess aphids.
The test compounds were formulated by diluting the stock suspension with water to give a suspension containing 500 parts of test compound per million parts of final formulation.
The potted plants (one pot per compound tested) infested with 100-150 aphids, were placed on a revolving turntable and sprayed with 100-110 milliliters of test compound formulation by use of a DeVilbiss spray gun set at 40 psig. air pressure. This application, which tested 25 seconds, was sufficient to wet the plants to run-off. As a control, 100-110 milliliters of a water-acetone-emulsifier solution containing no test compound were also sprayed on infested plants. After spraying, the pots were placed on their sides on a sheet of white standard mimeograph paper which had been previously ruled to facilitate counting. Temperature and humidity in the test room during the 24 hour holding period were 65°-70° F. and 50-70 percent, respectively. Aphids which fell onto the paper and were unable to remain standing after being uprighted were considered dead. Aphids remaining on the plants were observed closely for movement and those which were unable to move the length of the body upon stimulation by prodding were considered dead. Percent mortality was recorded for various concentration levels.
(§2) In these tests the pesticidal activity of the compounds against aphid, mite, Southern Armyworm, Bean Beetle and house fly was rated as follows: […]

Experiment [2] deals with two-spotted mite (Tetranychus urticae Koch). As to the kind of experiment: Mite Foliage Spray Test. The conditions noted are these: 500 ppm, six days. Also noted: key: A: excellent control; B: partial control; C: no control. As to the method:
as §1
Adults and nymphal stages of the two-spotted mite (Tetranychus urticae Koch), reared on Tendergreen bean plants at 80±5 percent relative humidity, were the test organisms. Infested leaves from a stock culture were placed on the primary leaves of two bean plants six to eight inches in height, growing in a two-and-a-half inch clay pot. 150-200 Mites, a sufficient number for testing, transferred from the excised leaves to the fresh plants in a period of twenty four hours. Following the twenty four hour transfer period, the excised leaves were removed from the infested plants. The test compounds were formulated by diluting the stock suspension with water to give a suspension containing 500 parts of test compound per million parts of final formulation. The potted plants (one pot per compound) were placed on a revolving turntable and sprayed with 100-110 milliliters of test compound formulation by use of a DeVilbiss spray gun set at 40 psig. air pressure. This application, which lasted 25 seconds, was sufficient to wet the plants to run-off. As a control, 100-110 milliliters of a water solution containing acetone and emulsifier in the same concentrations as the test compound formulation, but containing no test compound, were also sprayed on infested plants. The sprayed plants were held at 80±5 percent relative humidity for six days, after which a mortality count of motile forms was made. Microscopic examination for motile forms was made on the leaves of the test plants. Any individual which was capable of locomotion upon prodding was considered living.
as §2

In experiment [3] the test system is southern armyworm (Prodenia eridania, (Cram.)). As to the kind of experiment: Southern Armyworm Leaf Spray Test. Particulars: 500 ppm, three days. The arrangement: key: A: excellent control; B: partial control; C: no control. As to the method: as §1
Larvae of the southern armyworm (Prodenia eridania, (Cram.)), reared on Tendergreen bean plants at a temperature of 80±5° F. and a relative humidity of 50±5 percent, constituted the test insects.
The test compounds were formulated by diluting the stock suspension with water to give a suspension containing 500 parts of test compound per million parts of final formulation. Potted Tendergreen bean plants of standard height and age were placed on a revolving turntable and sprayed with 100-110 milliliters of test compound formulation by use of a DeVilbiss spray gun set at 10 psig air pressure. This application, which tested 25 seconds, was sufficient to wet plants to run-off. As a control, 100-110 milliliters of a water-acetone-emulsifier solution containing no test compound were also sprayed on infested plants. When dry, the paired leaves were separated and each one was placed in a 9 centimeter Petri dish lined with moistened filter paper. Five randomly selected larvae were introduced into each dish and the dishes were closed. The closed dishes were labeled and held at 80°-85° F. for three days. Although the larvae could easily consume the whole leaf within twenty-four hours, no more food was added. Larvae which were unable to move the length of the body, even upon stimulation by prodding, were considered dead. Percent mortality was recorded for various concentration levels.
as §2

In experiment [4] the test system is Mexican bean beetle (Epilachna varivestis, Muls.). As to the kind of experiment: Mexican Bean Beetle Leaf Spray Test. The arrangement: key: A: excellent control; B: partial control; C: no control. The conditions noted are these: 500 ppm, three days. The procedure:
as §1
Fourth instar larvae of the Mexican bean beetle (Epilachna varivestis, Muls.), reared on Tendergreen bean plants at a temperature of 80±5° F. and 50±5 percent relative humidity, were the test insects.
The test compounds were formulated by diluting the stock suspension with water to give a suspension containing 500 parts of test compound per million parts of final formulation. Potted Tendergreen bean plants of standard height and age were placed on a revolving turntable and sprayed with 100-110 milliliters of test compound formulation by use of a DeVilbiss spray gun set at 10 psig air pressure. The application, which lasted 25 seconds, was sufficient to wet plants to run-off. As a control, 100-110 milliliters of a water-acetone-emulsifier solution containing no test compound were also sprayed on infested plants. When dry, the paired leaves were separated and each was placed in a 9 centimeter Petri dish lined with moistened filter paper. Five randomly selected larvae were introduced into each dish, and the dishes were closed. The closed dishes were labeled and held at a temperature of 80±5° F. for three days. Although the larvae could easily consume the leaf within 24 to 48 hours, no more food was added. Larvae which were unable to move the length of the body, even upon stimulation, were considered dead.
as §2

The subject of experiment [5] is house flies (Musca domestica, L.). As to the kind of experiment: Fly Bait Test. The conditions noted are these: 500 ppm in sugar solution, twenty four hours. Also noted: key: A: excellent control; B: partial control; C: no control. The procedure: as §1
Four to six day old adult house flies (Musca domestica, L.) reared according to the specifications of the Chemical Specialities Manufacturing Association (Blue Book, McNair-Dorland Co., N.Y. 1954; pages 243-244, 261) under controlled conditions of 80±5° F. and 50±5 percent relative humidity, were the test insects. The flies were immobilized by anesthetizing with carbon dioxide and twenty five immobilized individuals,males and females, were transferred to a cage consisting of a standard food strainer about five inches in diameter which was inverted over a wrapping-paper-covered surface. The test compounds were formulated by diluting the stock suspension with a 10 percent (by weight) sugar solution to give a suspension containing 500 parts of test compound per million parts of final formulation, by weight. Ten milliliters of the test formulation were added to a souffle cup containing a one-inch square of an absorbent cotton pad. This bait cup was introduced and centered on the blotting paper under the food strainer prior to admitting the anesthetized flies. The caged flies were allowed to feed on the bait for twenty four hours, at a temperature of 80±5° F. and the relative humidity of 50±5 percent.
as §2

The subject of experiment [6] is root-knot nematode (Meloidogyne incognita var. acrita). As to the kind of experiment: Nematode Test. Particulars: 10 ml of 500 ppm formulation per jar (approx. 180 cc soil), cucumber indicator crop, approx. three weeks. The arrangement: key: 1: severe galling; equal to untreated control; 2: moderate galling; 3: light galling; 4: very light galling; 5: no galling. As to the method:
as §1
Infective migratory larvae of the root-knot nematode, (Meloidogyne incognita var. acrita) were reared in the greenhouse on roots of Rutgers variety tomato plant. Infected tomato plants were removed from the culture and the roots were chopped very finely. A small amount of inoculum from the roots was added to pint Mason jars containing approximately 180 cc of soil. The jars containing the inoculum and soil were capped and incubated for one week at room temperature. During this period eggs of the nematode hatched and the larvae forms migrated into the soil.
The test compounds were formulated by diluting the stock suspension with water to give a suspension containing 500 parts of test compound per million parts of final formulation. 10 milliliters of the test formulation was added to each of two jars for each dosage treated. As a control 10 milliliters of a water-acetone-emulsifier solution containing no test compound was also added to jars containing nematode larvae. The jars were capped and the contents thoroughly mixed on a kale mill for five minutes. The jars remained capped at room temperature for a period of 48 hours and the contents were then transferred to 3 inch pots. Subsequently, the pots were seeded to cucumber as an indicator crop and placed in the green house where they were cared for in the normal fashion for growing potted cucumber for approximately three weeks. These cucumber plants were then removed from the pots, the soil washed from the roots and the amount of galling visually rated.
The nematocidal toxicity has the following ratings;

As to `CC(=NOC(=O)N(C)SSN(C)C(=O)ON=C(C)[S+](C)[O-])[S+](C)[O-]` (stereo not shown) [N,N'--Bis-[1-Methylsulfinylacetaldehyde O--(N--methylcarbamoyl)oxime] disulfide], the “Bean Aphid control rating” value in experiment [1] was “C”. Further, the “2-Spotted Mite control rating” value in experiment [2] is “C”. In addition, the “Southern Armyworm control rating” value in experiment [3] is recorded as “B”. The “Mexican Bean Beetle control rating” value in experiment [4] is given as “A”. In experiment [5], the House-Fly control rating result was “A”. Moreover, the “Root-Knot Nematode galling rating” value in experiment [6] came out at 1.
As to `CN=C1SC(=NOC(=O)N(C)SSN(C)C(=O)ON=C2SC(=NC)SC2(C)C)C(C)(C)S1` [N,N'--Bis-[2-Methylimino-4,4-dimethyl-5-(O--(N--methyl-carbamoyl)oximino-1,3-dithiolane]disulfide], in experiment [1], the “Bean Aphid control rating” value was “A”. Also, the “2-Spotted Mite control rating” value in experiment [2] is “B”. In addition, in experiment [3], the “Southern Armyworm control rating” value is “A”. For the same molecule, the “Mexican Bean Beetle control rating” value in experiment [4] is “A”. Moreover, in experiment [5], the House-Fly control rating entry is on record as “A”. Further, in experiment [6], the “Root-Knot Nematode galling rating” value is reported as 4.
As to `CC(C)N1C(=O)C(C)(C)SC1=NOC(=O)N(C)SSN(C)C(=O)ON=C1SC(C)(C)C(=O)N1C(C)C` [N,N'--Bis-[3-Isopropyl-5,5-dimethyl-2-(O--(N--methylcarbamoyl)oximino)-1,3-thiazolidin-4-one] disulfide], in experiment [1], the “Bean Aphid control rating” value is recorded as “A”. For the same molecule, the “2-Spotted Mite control rating” value in experiment [2] is on record as “C”. Also, the “Southern Armyworm control rating” value in experiment [3] is given as “B”. In experiment [4], the “Mexican Bean Beetle control rating” value is “A”. The House-Fly control rating result in experiment [5] was “C”.
With `CC(=NOC(=O)N(C)SSN(C)C(=O)ON=C(C)SC(C)C)SC(C)C` [N,N'-Bis-[1-Isopropylthioacetaldehyde O-(N-methylcarbamoyl)oxime]disulfide], the “Bean Aphid control rating” value in experiment [1] is reported as “A”. Also, in experiment [2], the “2-Spotted Mite control rating” value is “A”. For the same molecule, the “Southern Armyworm control rating” value in experiment [3] is recorded as “A”. Also, the “Mexican Bean Beetle control rating” value in experiment [4] is on record as “A”. Moreover, the House-Fly control rating entry in experiment [5] is recorded as “A”. In experiment [6], the “Root-Knot Nematode galling rating” value is reported as 4.
Turning to `CN(SSN(C)C(=O)ON=CC(C)(C)S(C)(=O)=O)C(=O)ON=CC(C)(C)S(C)(=O)=O` [N,N'-Bis-[2-Methylsulfonyl-2-methylpropionaldehyde O-(N-methylcarbamoyl)oxime]disulfide], the “Bean Aphid control rating” value in experiment [1] was “C”. Further, the “2-Spotted Mite control rating” value in experiment [2] is “B”. Also, the “Southern Armyworm control rating” value in experiment [3] was “C”. Besides, the “Mexican Bean Beetle control rating” value in experiment [4] is listed as “C”. Moreover, the House-Fly control rating entry in experiment [5] was “A”. For the same molecule, in experiment [6], the “Root-Knot Nematode galling rating” value was found to be 4.
With `CN(SSN(C)C(=O)ON=C1SCCS1)C(=O)ON=C1SCCS1` [N,N'-bis-[2-(O-(N-Methylcarbamoyl)oximino)-1,3-dithiolane]disulfide], the “Bean Aphid control rating” value in experiment [1] is “A”. Further, in experiment [2], the “2-Spotted Mite control rating” value was “C”. For the same molecule, the “Southern Armyworm control rating” value in experiment [3] is reported as “A”. Further, the “Mexican Bean Beetle control rating” value in experiment [4] is recorded as “A”. Moreover, the House-Fly control rating result in experiment [5] is given as “A”. In addition, the “Root-Knot Nematode galling rating” value in experiment [6] was determined as 5.
As for `CN(SSN(C)C(=O)ON=CC(C)(C)C#N)C(=O)ON=CC(C)(C)C#N` [N,N'-bis-[2-Cyano-2-methylpropionaldehyde O-(N-methylcarbamoyl)oxime]disulfide], the “Bean Aphid control rating” value in experiment [1] is listed as “A”. Also, in experiment [2], the “2-Spotted Mite control rating” value is “A”. Further, the “Southern Armyworm control rating” value in experiment [3] was “A”. Moreover, the “Mexican Bean Beetle control rating” value in experiment [4] is “A”. Also, the House-Fly control rating result in experiment [5] is on record as “A”. For the same molecule, in experiment [6], the “Root-Knot Nematode galling rating” value is listed as 4.
As for `CN1CCSC(=NOC(=O)N(C)SSN(C)C(=O)ON=C2SCCN(C)C2=O)C1=O` [N,N'-bis-[4-Methyl-2-(O-(N-methylcarbamoyl)oximino)tetrahydro-1,4-thiazin-3-one]disulfide], in experiment [1], the “Bean Aphid control rating” value is “A”. Moreover, the “2-Spotted Mite control rating” value in experiment [2] is on record as “A”. Further, the “Southern Armyworm control rating” value in experiment [3] is “A”. For the same molecule, in experiment [4], the “Mexican Bean Beetle control rating” value is recorded as “A”. The House-Fly control rating entry in experiment [5] is listed as “A”.
